We go through 24 compounds from ChEMBL document CHEMBL1208753, “Peptide deformylase inhibitors with retro-amide scaffold: synthesis and structure-activity relationships” (Bioorg Med Chem Lett, 2010).

In brackets after ≈: the same amount, converted by molar mass.

Test [1] deals with Streptococcus pneumoniae. Kind of test: Antimicrobial activity against Streptococcus pneumoniae ATCC 6305 after 48 hrs. Format: functional. The conditions noted are these: ATCC 6305, 48 h.
Test [2] concerns Haemophilus influenzae. Kind of test: Antimicrobial activity against Haemophilus influenzae ATCC 51907 after 24 hrs. Format: functional. The conditions noted are these: ATCC 51907, 24 h.
Test [3] relates to Moraxella catarrhalis. Kind of test: Antimicrobial activity against Moraxella catarrhalis ATCC 43617 after 48 hrs. Format: functional. The conditions noted are these: ATCC 43617, 48 h.
The target in test [4] is T1, Peptide deformylase (Pseudomonas aeruginosa (strain ATCC 15692 / PAO1 / 1C / PRS 101 / LMG12228), UniProt Q9I7A8).
T1 sequence (Q9I7A8 whole entry): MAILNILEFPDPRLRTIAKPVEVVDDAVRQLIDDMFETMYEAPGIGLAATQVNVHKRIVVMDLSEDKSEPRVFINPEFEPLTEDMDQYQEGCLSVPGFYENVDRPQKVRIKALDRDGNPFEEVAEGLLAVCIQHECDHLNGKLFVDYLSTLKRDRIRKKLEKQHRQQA
Kind of test: Inhibition of Pseudomonas aeruginosa Peptide deformylase by fluorescence analysis.

Take `COc1ccccc1NC(=O)N[C@H](C(=O)N(CC(=O)NO)CC1CC1)C(C)(C)C`: the results for the MIC in test [1], in test [2] and in test [3] were 12.5 µg/mL (≈ 30.8 µM), 6.3 µg/mL (≈ 15.5 µM) and 1.6 µg/mL (≈ 3.94 µM), respectively. Further, the IC50 in test [4] was 0.015 µM.
`COc1ccccc1NC(=O)N[C@H](C(=O)N(CC(=O)NO)CC1CCC1)C(C)(C)C`: the results for the MIC in test [1], in test [2] and in test [3] were 0.4 µg/mL (≈ 0.951 µM), 0.4 µg/mL (≈ 0.951 µM) and 0.1 µg/mL (≈ 0.238 µM), respectively. In test [4], this compound had an IC50 of 0.013 µM.
For the compound `COc1ccccc1NC(=O)N[C@H](C(=O)N(CC(=O)NO)CC1CCCC1)C(C)C`, the MIC in test [1] worked out at 0.8 µg/mL (≈ 1.9 µM); in test [2] it was 0.8 µg/mL (≈ 1.9 µM); in test [3], 0.1 µg/mL (≈ 0.238 µM). The half-maximal inhibitory concentration (IC50) in test [4] is 0.013 µM.
Consider `COc1ccccc1NC(=O)N[C@@H](C)C(=O)N(CC(=O)NO)CC1CCCC1`, for which the MIC in test [1] worked out at 6.3 µg/mL (≈ 16.1 µM); in test [2], 12.5 µg/mL (≈ 31.9 µM); in test [3], 12.5 µg/mL (≈ 31.9 µM). Besides, in test [4], the half-inhibitory concentration (IC50) was 0.042 µM.
On to `COc1ccccc1NC(=O)N[C@@H](Cc1ccccc1)C(=O)N(CC(=O)NO)CC1CCCC1`, for which the MIC worked out at 25 µg/mL (≈ 53.4 µM) in test [1], 25 µg/mL (≈ 53.4 µM) in test [2] and 12.5 µg/mL (≈ 26.7 µM) in test [3]. Besides, in test [4], inhibition was half-maximal at 0.061 µM (IC50).
For `CC[C@@H](C)[C@H](NC(=O)Nc1ccccc1OC)C(=O)N(CC(=O)NO)CC1CCCC1`, the MIC in test [1] came out at 3.2 µg/mL (≈ 7.36 µM); in test [2] it was 1.6 µg/mL (≈ 3.68 µM); in test [3], 0.2 µg/mL (≈ 0.46 µM). Besides, the IC50 in test [4] amounted to 0.032 µM.
Turning to `COc1ccccc1NC(=O)N[C@@H](CC(C)C)C(=O)N(CC(=O)NO)CC1CCCC1`, the figures for the MIC in test [1], in test [2] and in test [3] were 3.2 µg/mL (≈ 7.36 µM), 3.2 µg/mL (≈ 7.36 µM) and 0.8 µg/mL (≈ 1.84 µM), respectively. For the same compound, half-maximal inhibition in test [4] (IC50) required 0.036 µM.
In the case of `COc1ccccc1NC(=O)N1CCC[C@H]1C(=O)N(CC(=O)NO)CC1CCCC1`, the results for the MIC in test [1], in test [2] and in test [3] were 200 µg/mL (≈ 478 µM), 200 µg/mL (≈ 478 µM) and 50 µg/mL (≈ 119 µM), respectively. This compound also returned a 50% inhibitory concentration (IC50) in test [4] of 0.116 µM.
`CC(C)C(=O)N[C@H](C(=O)N(CC(=O)NO)CC1CCCC1)C(C)(C)C`: the results for the MIC in test [1], in test [2] and in test [3] were 100 µg/mL (≈ 281 µM), 50 µg/mL (≈ 141 µM) and 0.8 µg/mL (≈ 2.25 µM), respectively. This compound also had an IC50 in test [4] of 0.052 µM.
`CC(C)(C)[C@H](NC(=O)c1ccccc1)C(=O)N(CC(=O)NO)CC1CCCC1`: the MIC in test [1] came to 12.5 µg/mL (≈ 32.1 µM); in test [2], 3.2 µg/mL (≈ 8.22 µM); in test [3], 0.1 µg/mL (≈ 0.257 µM). Further, the IC50 in test [4] came out at 0.041 µM.
For the compound `CC(C)(C)[C@H](NC(=O)c1cccs1)C(=O)N(CC(=O)NO)CC1CCCC1`, the MIC in test [1] is 12.5 µg/mL (≈ 31.6 µM); in test [2], 1.6 µg/mL (≈ 4.05 µM); in test [3], 0.2 µg/mL (≈ 0.506 µM). In addition, in test [4], inhibition was half-maximal at 0.019 µM (IC50).
For `COc1ccccc1C(=O)N[C@H](C(=O)N(CC(=O)NO)CC1CCCC1)C(C)(C)C`, the results for the MIC in test [1], in test [2] and in test [3] were 50 µg/mL (≈ 119 µM), 0.4 µg/mL (≈ 0.953 µM) and 0.1 µg/mL (≈ 0.238 µM), respectively. Besides, the IC50 in test [4] came to 0.011 µM.
As to `CC(C)(C)[C@H](NC(=O)Nc1ccccc1)C(=O)N(CC(=O)NO)CC1CCCC1`, the MIC was 3.2 µg/mL (≈ 7.91 µM) in test [1], 0.4 µg/mL (≈ 0.989 µM) in test [2] and 0.1 µg/mL (≈ 0.247 µM) in test [3]. The same compound gave a half-maximal inhibitory concentration (IC50) in test [4] of 0.017 µM.
Regarding `CC(C)(C)[C@H](NC(=O)N1CCCCC1)C(=O)N(CC(=O)NO)CC1CCCC1`, the MIC came out at 12.5 µg/mL (≈ 31.5 µM) in test [1], 12.5 µg/mL (≈ 31.5 µM) in test [2] and 0.8 µg/mL (≈ 2.02 µM) in test [3]. In test [4], this compound returned a half-inhibitory concentration (IC50) of 0.047 µM.
`CN(C(=O)N[C@H](C(=O)N(CC(=O)NO)CC1CCCC1)C(C)(C)C)c1ccccc1`: the MIC turned out to be 50 µg/mL (≈ 119 µM) in test [1], 25 µg/mL (≈ 59.7 µM) in test [2] and 0.4 µg/mL (≈ 0.956 µM) in test [3]. In test [4], this compound returned a half-maximal inhibitory concentration (IC50) of 0.05 µM.
With `CC(C)(C)[C@H](NC(=O)N1CCOCC1)C(=O)N(CC(=O)NO)CC1CCCC1`, the results for the MIC in test [1], in test [2] and in test [3] were 25 µg/mL (≈ 62.7 µM), 12.5 µg/mL (≈ 31.4 µM) and 0.2 µg/mL (≈ 0.502 µM), respectively. This compound yielded an IC50 in test [4] of 0.028 µM.
For `CC(C)(C)[C@H](NC(=O)NC1CCCCC1)C(=O)N(CC(=O)NO)CC1CCCC1` the same measures were 6.3 µg/mL (≈ 15.3 µM), 6.3 µg/mL (≈ 15.3 µM), 0.1 µg/mL (≈ 0.244 µM) and 0.055 µM.
In the case of `COCCNC(=O)N[C@H](C(=O)N(CC(=O)NO)CC1CCCC1)C(C)(C)C`, the MIC in test [1] is 6.3 µg/mL (≈ 16.3 µM); in test [2] it was 6.3 µg/mL (≈ 16.3 µM); in test [3], 0.1 µg/mL (≈ 0.259 µM). The compound also gave a half-inhibitory concentration (IC50) in test [4] of 0.042 µM.
Turning to `CC(C)(C)[C@H](NC(=O)Nc1ccccn1)C(=O)N(CC(=O)NO)CC1CCCC1`, the MIC in test [1] worked out at 12.5 µg/mL (≈ 30.8 µM); in test [2], 0.8 µg/mL (≈ 1.97 µM); in test [3], 0.1 µg/mL (≈ 0.247 µM). Also, in test [4], the IC50 amounted to 0.054 µM.
Consider `CC(C)(C)[C@H](NC(=O)Nc1ccncc1)C(=O)N(CC(=O)NO)CC1CCCC1`, for which the MIC in test [1] was found to be 25 µg/mL (≈ 61.7 µM); in test [2] it was 6.3 µg/mL (≈ 15.5 µM); in test [3], 0.2 µg/mL (≈ 0.493 µM). In test [4], this compound gave a half-maximal inhibitory concentration (IC50) of 0.065 µM.
Regarding `CC(C)(C)[C@H](NC(=O)Nc1cccnc1)C(=O)N(CC(=O)NO)CC1CCCC1`, the MIC came out at 6.3 µg/mL (≈ 15.5 µM) in test [1], 3.2 µg/mL (≈ 7.89 µM) in test [2] and 0.1 µg/mL (≈ 0.247 µM) in test [3]. Also, the midpoint of inhibition in test [4], the IC50, lay at 0.049 µM.
In the case of `COc1ccccc1NC(=O)N[C@H](C(=O)N(CC(=O)NO)CC1CCCC1)C(C)(C)C`, the MIC in test [1] was determined as 0.2 µg/mL (≈ 0.46 µM); in test [2] it was 0.2 µg/mL (≈ 0.46 µM); in test [3], 0.1 µg/mL (≈ 0.23 µM). Also, the half-maximal inhibitory concentration (IC50) in test [4] stood at 0.029 µM.
In the case of `COc1ccccc1NC(=O)N[C@H](C(=O)N(CCC1CCCC1)CC(=O)NO)C(C)(C)C`, the MIC in test [1] amounted to 0.4 µg/mL (≈ 0.892 µM); in test [2] it was 0.8 µg/mL (≈ 1.78 µM); in test [3], 0.1 µg/mL (≈ 0.223 µM). In test [4], this compound showed a half-maximal inhibitory concentration (IC50) of 0.031 µM.
The matching figures for `COc1ccccc1NC(=O)N[C@H](C(=O)N(CCC(C)C)CC(=O)NO)C(C)(C)C`: 0.8 µg/mL (≈ 1.89 µM), 0.8 µg/mL (≈ 1.89 µM), 0.1 µg/mL (≈ 0.237 µM) and 0.021 µM.
